Assay results published in US5045302A, “Ligands and cationic complexes thereof with technetium-99m” (priority 1988, dated 1991).

Test: Rat biodistribution of Tc-99m complexes

Row | Blood (2 min p.i.) | Heart (2 min p.i.) | Heart/Blood Counts/Gram Ratio (2 min p.i.) | Heart/Liver Counts/Gram Ratio (2 min p.i.) | Liver (2 min p.i.) | Blood (60 min p.i.) | Heart (60 min p.i.) | Heart/Blood Counts/Gram Ratio (60 min p.i.) | Heart/Liver Counts/Gram Ratio (60 min p.i.) | Liver (60 min p.i.) | Compound
1 | 24.2 % Injected dose/organ | 0.58 % Injected dose/organ | 0.37 | 0.24 | 35.1 % Injected dose/organ | 5.78 % Injected dose/organ | 0.41 % Injected dose/organ | 1.0 | 0.14 | 36.0 % Injected dose/organ | CCOCC(COCC)CP(CCP(CC(COCC)COCC)CC(COCC)COCC)CC(COCC)COCC [Compound 18]
2 | 18.8 % Injected dose/organ | 0.46 % Injected dose/organ | 0.37 | 1.29 | 3.27 % Injected dose/organ | 0.88 % Injected dose/organ | 0.03 % Injected dose/organ | 0.6 | 0.76 | 0.67 % Injected dose/organ | COC(CCP(CCC(OC)OC)CCP(CCC(OC)OC)CCC(OC)OC)OC [Compound 19]
3 | 7.14 % Injected dose/organ | 1.01 % Injected dose/organ | 1.95 | 0.50 | 24.50 % Injected dose/organ | 1.52 % Injected dose/organ | 0.81 % Injected dose/organ | 7.9 | 0.69 | 14.90 % Injected dose/organ | CCOC(CCP(CCC(OCC)OCC)CCP(CCC(OCC)OCC)CCC(OCC)OCC)OCC [Compound 20]
4 | 18.6 % Injected dose/organ | 0.37 % Injected dose/organ | 0.33 | 0.58 | 9.83 % Injected dose/organ | 1.14 % Injected dose/organ | 0.04 % Injected dose/organ | 0.5 | 0.26 | 1.95 % Injected dose/organ | C1OCC(CP(CCP(CC2COCO2)CC2COCO2)CC2COCO2)O1 (centres unmarked) [Compound 21]
5 | 10.4 % Injected dose/organ | 0.99 % Injected dose/organ | 1.20 | 0.79 | 15.7 % Injected dose/organ | 1.23 % Injected dose/organ | 1.00 % Injected dose/organ | 12.3 | 3.99 | 3.41 % Injected dose/organ | CC1(C)OCC(CP(CCP(CC2COC(C)(C)O2)CC2COC(C)(C)O2)CC2COC(C)(C)O2)O1 (centres unmarked) [Compound 22]
6 | 3.92 % Injected dose/organ | 1.82 % Injected dose/organ | 6.98 | 1.74 | 16.4 % Injected dose/organ | 0.55 % Injected dose/organ | 1.42 % Injected dose/organ | 39.7 | 2.62 | 8.56 % Injected dose/organ | C1COC(CP(CCP(CC2CCCO2)CC2CCCO2)CC2CCCO2)C1 (centres unmarked) [Compound 24]
7 | 18.10 % Injected dose/organ | 0.40 % Injected dose/organ | 0.34 | 0.94 | 5.74 % Injected dose/organ | 1.51 % Injected dose/organ | 0.04 % Injected dose/organ | 0.41 | 0.34 | 1.60 % Injected dose/organ | C1CC(CP(CCP(CC2CCOCC2)CC2CCOCC2)CC2CCOCC2)CCO1 [Compound 25]
8 | 9.0 % Injected dose/organ | 0.82 % Injected dose/organ | 1.62 | 1.28 | 11.0 % Injected dose/organ | 0.73 % Injected dose/organ | 0.69 % Injected dose/organ | 15.5 | 3.93 | 2.94 % Injected dose/organ | CCOCCP(CCOC)CCP(CCOC)CCOCC (centres unmarked) [Compound 28]
9 | 8.75 % Injected dose/organ | 1.23 % Injected dose/organ | 2.26 | 0.95 | 18.6 % Injected dose/organ | 1.64 % Injected dose/organ | 1.15 % Injected dose/organ | 11.5 | 1.40 | 11.5 % Injected dose/organ | CCCOCCP(CCOC)CCP(CCOC)CCOCCC (centres unmarked) [Compound 29]
10 | 9.52 % Injected dose/organ | 0.73 % Injected dose/organ | 1.14 | 1.28 | 7.69 % Injected dose/organ | 0.34 % Injected dose/organ | 0.70 % Injected dose/organ | 27.4 | 4.24 | 1.89 % Injected dose/organ | CCOCCCP(CCOC)CCP(CCCOCC)CCOC (centres unmarked) [Compound 30]
11 | 6.88 % Injected dose/organ | 1.21 % Injected dose/organ | 3.05 | 0.84 | 25.0 % Injected dose/organ | 1.22 % Injected dose/organ | 0.99 % Injected dose/organ | 13.4 | 1.21 | 12.4 % Injected dose/organ | CCOCCP(CCOC(C)C)CCP(CCOCC)CCOC(C)C (centres unmarked) [Compound 31]
12 | 5.85 % Injected dose/organ | 0.85 % Injected dose/organ | 2.31 | 1.27 | 10.8 % Injected dose/organ | 0.38 % Injected dose/organ | 0.81 % Injected dose/organ | 33.2 | 7.46 | 1.78 % Injected dose/organ | CCOCCP(CCOCCF)CCP(CCOCC)CCOCCF (centres unmarked) [Compound 32]
13 | 17.9 % Injected dose/organ | 0.50 % Injected dose/organ | 0.43 | 0.16 | 39.4 % Injected dose/organ | 3.20 % Injected dose/organ | 0.29 % Injected dose/organ | 1.3 | 0.29 | 11.4 % Injected dose/organ | CCOCP(CCCP(COCC)COCC)COCC [Compound 33]
14 | 19.5 % Injected dose/organ | 0.41 % Injected dose/organ | 0.34 | 0.22 | 29.7 % Injected dose/organ | 4.56 % Injected dose/organ | 0.16 % Injected dose/organ | 0.52 | 0.21 | 10.9 % Injected dose/organ | CCOCCP(CCCP(CCOCC)CCOCC)CCOCC [Compound 34]
15 | 10.5 % Injected dose/organ | 0.59 % Injected dose/organ | 0.88 | 0.28 | 28.2 % Injected dose/organ | 1.44 % Injected dose/organ | 0.32 % Injected dose/organ | 3.8 | 0.46 | 10.7 % Injected dose/organ | C1COC(CP(CCCP(CC2CCCO2)CC2CCCO2)CC2CCCO2)C1 (centres unmarked) [Compound 35]
16 | 10.8 % Injected dose/organ | 1.05 % Injected dose/organ | 1.45 | 0.73 | 18.8 % Injected dose/organ | 2.18 % Injected dose/organ | 0.73 % Injected dose/organ | 5.69 | 1.62 | 6.64 % Injected dose/organ | CCOCCP(CCOCC)CC(CP(CCOCC)CCOCC)OC [Compound 36]
17 | 12.4 % Injected dose/organ | 0.82 % Injected dose/organ | 0.99 | 0.35 | 29.7 % Injected dose/organ | 3.25 % Injected dose/organ | 0.54 % Injected dose/organ | 2.62 | 0.63 | 12.0 % Injected dose/organ | CCOCCP(CCOCC)c1ccccc1P(CCOCC)CCOCC [Compound 37]
